Experimental data taken from US7968577B2 (Bristol-Myers Squibb Company, priority 2006, dated 2011).

target: T1, human glucocorticoid receptor (Homo sapiens, UniProt P04150); test: Glucocorticoid Receptor Binding Assay (I), fluorescence polarization competitor kit (Fluormone GS Red); conditions: GR Binding Assay (I)
T1 construct: purified human recombinant full-length glucocorticoid receptor; purchased Invitrogen Part #2893
T1 sequence (P04150 1-777): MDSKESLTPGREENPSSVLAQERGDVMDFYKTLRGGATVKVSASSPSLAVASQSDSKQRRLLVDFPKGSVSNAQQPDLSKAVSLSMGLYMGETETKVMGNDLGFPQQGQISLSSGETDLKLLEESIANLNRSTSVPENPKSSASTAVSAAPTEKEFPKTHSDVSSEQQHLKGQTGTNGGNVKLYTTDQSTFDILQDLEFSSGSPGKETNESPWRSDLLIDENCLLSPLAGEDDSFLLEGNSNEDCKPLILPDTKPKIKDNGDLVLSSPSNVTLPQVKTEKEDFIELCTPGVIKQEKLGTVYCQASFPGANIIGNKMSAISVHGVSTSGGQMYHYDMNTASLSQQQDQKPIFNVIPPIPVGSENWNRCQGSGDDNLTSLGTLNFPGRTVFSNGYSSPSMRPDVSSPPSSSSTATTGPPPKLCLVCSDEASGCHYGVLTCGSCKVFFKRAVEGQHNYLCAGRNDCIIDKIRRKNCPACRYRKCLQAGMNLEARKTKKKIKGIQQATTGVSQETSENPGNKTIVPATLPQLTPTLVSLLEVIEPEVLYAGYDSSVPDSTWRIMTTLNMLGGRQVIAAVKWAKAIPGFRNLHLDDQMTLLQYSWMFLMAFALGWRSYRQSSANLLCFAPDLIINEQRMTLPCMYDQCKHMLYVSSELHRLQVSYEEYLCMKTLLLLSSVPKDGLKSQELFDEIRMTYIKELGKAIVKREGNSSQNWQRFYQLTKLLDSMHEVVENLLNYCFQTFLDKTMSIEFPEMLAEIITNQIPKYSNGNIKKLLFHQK
Method: Glucocorticoid Receptor Binding Assay (I)^a
In order to assess the affinity of test compounds for the human glucocorticoid receptor, a commercially available kit was used (Glucocorticoid Receptor Competitor Assay Kit, Invitrogen Part #2893). Briefly, purified human recombinant full-length glucocorticoid receptor (2 nM) was mixed with fluorescently labeled glucocorticoid (1 nM Fluormone GS Red) in the presence or absence of test compound. After two hour incubation at room temperature in the dark, the fluorescence polarization (FP) of the samples was measured. […] Test compounds were analyzed in the concentration range from 8.5 E-05 μM to 5 μM.

Q: How did the Ki turn out when `CC(C)(C(=O)Nc1nccs1)C(c1ccccc1)c1ccc(Oc2ccccc2)cc1` (stereo not drawn) [Example 321, 2,2-dimethyl-3-phenyl-3-(4-(phenyloxy)phenyl)-N-1,3-thiazol-2-ylpropanamide] was run?
A: 5.68 nM

Q: How did the Ki turn out when `CC(C)(C(=O)Nc1nncs1)C(c1ccccc1)c1ccc(Oc2ccccc2)cc1` (stereo not drawn) [Example 322, 2,2-dimethyl-3-phenyl-3-(4-(phenyloxy)phenyl)-N-1,3,4-thiadiazol-2-ylpropanamide] was run?
A: 5.17 nM

Q: `CC(C)(C(=O)Nc1nncs1)C(c1ccccc1)c1ccc(Br)cc1` (stereo not drawn) [Example 323, 3-(4-bromophenyl)-2,2-dimethyl-3-phenyl-N-1,3,4-thiadiazol-2-ylpropanamide] was tested. Which Ki did it give?
A: 5.07 nM

Q: With `CC(C)(C(=O)Nc1nncs1)C(c1ccccc1)c1ccc(Br)cc1` (stereo not drawn) [Example 324, 3-(4-bromophenyl)-2,2-dimethyl-3-phenyl-N-1,3,4-thiadiazol-2-ylpropanamide] as the molecule, how does the Ki read?
A: 9.36 nM

Q: `COc1ccc(-c2ccc(C(c3ccccc3)C(C)(C)C(=O)Nc3nncs3)cc2)cc1` (stereo not drawn) [Example 377, 2,2-dimethyl-3-(4′-(methyloxy)-4-biphenylyl)-3-phenyl-N-1,3,4-thiadiazol-2-ylpropanamide] was tested. Which Ki did it give?
A: 1.81 nM

Q: `CN(C)C(=O)c1ccc(-c2ccc(C(c3ccccc3)C(C)(C)C(=O)Nc3nncs3)cc2)cc1` (stereo not drawn) [Example 379, 4′-(2,2-dimethyl-3-oxo-1-phenyl-3-(1,3,4-thiadiazol-2-ylamino)propyl)-N,N-dimethyl-4-biphenylcarboxamide] was tested. Which Ki did it give?
A: 1.24 nM

Q: With `CN(C)C(=O)c1ccc(-c2ccc(C(c3ccccc3)C(C)(C)C(=O)Nc3nncs3)cc2)cc1` (stereo not drawn) [Example 380, 4′-(2,2-dimethyl-3-oxo-1-phenyl-3-(1,3,4-thiadiazol-2-ylamino)propyl)-N,N-dimethyl-4-biphenylcarboxamide] as the molecule, how does the Ki read?
A: 24.2 nM

Q: For `CN(C)C(=O)c1ccc(-c2ccc(C(c3ccccc3)C(C)(C)C(=O)Nc3nccs3)cc2)cc1` (stereo not drawn) [Example 381, 4′-(2,2-dimethyl-3-oxo-1-phenyl-3-(1,3-thiazol-2-ylamino)propyl)-N,N-dimethyl-4-biphenylcarboxamide], which Ki is on record?
A: 3.53 nM

Q: With `CC(C)Cc1ccc(-c2ccc(C(c3ccccc3)C(C)(C)C(=O)Nc3nncs3)cc2)cc1` (stereo not drawn) [Example 383, 2,2-dimethyl-3-(4′-(2-methylpropyl)-4-biphenylyl)-3-phenyl-N-1,3,4-thiadiazol-2-ylpropanamide] as the molecule, how does the Ki read?
A: 9.18 nM

Q: How did the Ki turn out when `CCCc1ccc(-c2ccc(C(c3ccccc3)C(C)(C)C(=O)Nc3nncs3)cc2)cc1` (stereo not drawn) [Example 384, 2,2-dimethyl-3-phenyl-3-(4′-propyl-4-biphenylyl)-N-1,3,4-thiadiazol-2-ylpropanamide] was run?
A: 6.43 nM

Q: For `CC(C)Oc1ccc(-c2ccc(C(c3ccccc3)C(C)(C)C(=O)Nc3nncs3)cc2)cc1F` (stereo not drawn) [Example 385, 3-(3′-fluoro-4′-((1-methylethyl)oxy)-4-biphenylyl)-2,2-dimethyl-3-phenyl-N-1,3,4-thiadiazol-2-ylpropanamide], which Ki is on record?
A: 13.8 nM

Q: Which Ki does the source give for `CC(C)CC(c1ccc(Br)cc1)C(C)(C)C(=O)Nc1nccs1` (stereo not drawn) [Example 386, 3-(4-bromophenyl)-2,2,5-trimethyl-N-1,3-thiazol-2-ylhexanamide] here?
A: 20.6 nM

Q: With `CC(C)CC(c1ccc(Br)cc1)C(C)(C)C(=O)Nc1nncs1` (stereo not drawn) [Example 387, 3-(4-bromophenyl)-2,2,5-trimethyl-N-1,3,4-thiadiazol-2-ylhexanamide] as the molecule, how does the Ki read?
A: 17.1 nM

Q: Which Ki does the source give for `Cc1nnc(NC(=O)C(C)(C)C(CC(C)C)c2ccc(N3CCOCC3)cc2)s1` (stereo not drawn) [Example 388, 2,2,5-trimethyl-N-(5-methyl-1,3,4-thiadiazol-2-yl)-3-(4-(4-morpholinyl)phenyl)hexanamide] here?
A: 14 nM

Q: How did the Ki turn out when `CC(C)CC(c1ccc(N2CCOCC2)cc1)C(C)(C)C(=O)Nc1nccs1` (stereo not drawn) [Example 389, 2,2,5-trimethyl-3-(4-(4-morpholinyl)phenyl)-N-1,3-thiazol-2-ylhexanamide] was run?
A: 4.65 nM

Q: How did the Ki turn out when `CC(C)CC(c1ccc(N2CCOCC2)cc1)C(C)(C)C(=O)Nc1nncs1` (stereo not drawn) [Example 390, 2,2,5-trimethyl-3-(4-(4-morpholinyl)phenyl)-N-1,3,4-thiadiazol-2-ylhexanamide] was run?
A: 5.41 nM

Q: How did the Ki turn out when `COc1ccc(-c2ccc(C(CC(C)C)C(C)(C)C(=O)Nc3nccs3)cc2)cc1` (stereo not drawn) [Example 391, 2,2,5-trimethyl-3-(4′-(methyloxy)-4-biphenylyl)-N-1,3-thiazol-2-ylhexanamide] was run?
A: 11.1 nM

Q: Which Ki does the source give for `CC(C)CC(c1ccc(-c2ccc(C(=O)N(C)C)cc2)cc1)C(C)(C)C(=O)Nc1nccs1` (stereo not drawn) [Example 392, 4′-(1-(1,1-dimethyl-2-oxo-2-(1,3-thiazol-2-ylamino)ethyl)-3-methylbutyl)-N,N-dimethyl-4-biphenylcarboxamide] here?
A: 6.83 nM

Q: For `CC(C)CC(c1ccc(-c2ccc(C(=O)N(C)C)cc2)cc1)C(C)(C)C(=O)Nc1nncs1` (stereo not drawn) [Example 393, 4′-(1-(1,1-dimethyl-2-oxo-2-(1,3,4-thiadiazol-2-ylamino)ethyl)-3-methylbutyl)-N,N-dimethyl-4-biphenylcarboxamide], which Ki is on record?
A: 3.68 nM

Q: For `COc1ccc(-c2ccc(C(CC(C)C)C(C)(C)C(=O)Nc3nncs3)cc2)cc1` (stereo not drawn) [Example 394, 2,2,5-trimethyl-3-(4′-(methyloxy)-4-biphenylyl)-N-1,3,4-thiadiazol-2-ylhexanamide], which Ki is on record?
A: 9.28 nM

Q: `CC(C)Cc1ccc(-c2ccc(C(CC(C)C)C(C)(C)C(=O)Nc3nncs3)cc2)cc1` (stereo not drawn) [Example 397, 2,2,5-trimethyl-3-(4′-(2-methylpropyl)-4-biphenylyl)-N-1,3,4-thiadiazol-2-ylhexanamide] was tested. Which Ki did it give?
A: 12.1 nM

Q: How did the Ki turn out when `CCCc1ccc(-c2ccc(C(CC(C)C)C(C)(C)C(=O)Nc3nncs3)cc2)cc1` (stereo not drawn) [Example 399, 2,2,5-trimethyl-3-(4′-propyl-4-biphenylyl)-N-1,3,4-thiadiazol-2-ylhexanamide] was run?
A: 7.1 nM

Q: `CC(C)(C(=O)Nc1nncs1)C(c1ccccc1)c1ccc(-c2cccc(Cl)c2)cc1` (stereo not drawn) [Example 409, 3-(3′-chloro-4-biphenylyl)-2,2-dimethyl-3-phenyl-N-1,3,4-thiadiazol-2-ylpropanamide] was tested. Which Ki did it give?
A: 25.4 nM

Q: Which Ki does the source give for `COc1cccc(-c2ccc(C(c3ccccc3)C(C)(C)C(=O)Nc3nncs3)cc2)c1` (stereo not drawn) [Example 410, 3-(3′-methoxy-4-biphenylyl)-2,2-dimethyl-3-phenyl-N-1,3,4-thiadiazol-2-ylpropanamide] here?
A: 4.45 nM

Q: How did the Ki turn out when `COc1ccccc1-c1ccc(C(c2ccccc2)C(C)(C)C(=O)Nc2nncs2)cc1` (stereo not drawn) [Example 411, 3-(2′-methoxy-4-biphenylyl)-2,2-dimethyl-3-phenyl-N-1,3,4-thiadiazol-2-ylpropanamide] was run?
A: 154 nM

Q: With `CC(C)(C(=O)Nc1nncs1)C(c1ccccc1)c1ccc(-c2ccc(O)cc2)cc1` (stereo not drawn) [Example 412, 3-(4′-hydroxy-4-biphenylyl)-2,2-dimethyl-3-phenyl-N-1,3,4-thiadiazol-2-ylpropanamide] as the molecule, how does the Ki read?
A: 16.5 nM

Q: With `CC(=O)c1cccc(-c2ccc(C(c3ccccc3)C(C)(C)C(=O)Nc3nncs3)cc2)c1` (stereo not drawn) [Example 413, 3-(3′-acetyl-4-biphenylyl)-2,2-dimethyl-3-phenyl-N-1,3,4-thiadiazol-2-ylpropanamide] as the molecule, how does the Ki read?
A: 110 nM

Q: Which Ki does the source give for `CC(=O)Nc1ccc(-c2ccc(C(c3ccccc3)C(C)(C)C(=O)Nc3nncs3)cc2)cc1` (stereo not drawn) [Example 414, 3-(4′-acetamido-4-biphenylyl)-2,2-dimethyl-3-phenyl-N-1,3,4-thiadiazol-2-ylpropanamide] here?
A: 9.27 nM

Q: For `CC(C)(C(=O)Nc1nncs1)C(c1ccccc1)c1ccc(-c2ccc3c(c2)CCO3)cc1` (stereo not drawn) [Example 415, 3-(4-(2,3-dihydro-1-benzofuran-5-yl)phenyl)-2,2-dimethyl-3-phenyl-N-1,3,4-thiadiazol-2-ylpropanamide], which Ki is on record?
A: 6.08 nM

Q: With `CCCCOc1ccc(-c2ccc(C(c3ccccc3)C(C)(C)C(=O)Nc3nncs3)cc2)cc1` (stereo not drawn) [Example 416, 3-(4′-butoxy-4-biphenylyl)-2,2-dimethyl-3-phenyl-N-1,3,4-thiadiazol-2-ylpropanamide] as the molecule, how does the Ki read?
A: 42.5 nM

Q: Which Ki does the source give for `CC(C)(C)c1ccc(-c2ccc(C(c3ccccc3)C(C)(C)C(=O)Nc3nncs3)cc2)cc1` (stereo not drawn) [Example 417, 3-(4′-tert-butyl-4-biphenylyl)-2,2-dimethyl-3-phenyl-N-1,3,4-thiadiazol-2-ylpropanamide] here?
A: 52.9 nM

Q: How did the Ki turn out when `CCCCc1ccc(-c2ccc(C(c3ccccc3)C(C)(C)C(=O)Nc3nncs3)cc2)cc1` (stereo not drawn) [Example 418, 3-(4′-butyl-4-biphenylyl)-2,2-dimethyl-3-phenyl-N-1,3,4-thiadiazol-2-ylpropanamide] was run?
A: 26.5 nM

Q: How did the Ki turn out when `CCOc1ccc(-c2ccc(C(c3ccccc3)C(C)(C)C(=O)Nc3nncs3)cc2)cc1` (stereo not drawn) [Example 419, 3-(4′-ethoxy-4-biphenylyl)-2,2-dimethyl-3-phenyl-N-1,3,4-thiadiazol-2-ylpropanamide] was run?
A: 5.53 nM
